Reference: ChEMBL document CHEMBL1142848, “Synthesis and antibacterial activity of N-(5-benzylthio-1,3,4-thiadiazol-2-yl) and N-(5-benzylsulfonyl-1,3,4-thiadiazol-2-yl)piperazinyl quinolone derivatives” (2005)
Values after ≈ are worked out from the molar mass of the structure shown.

What was measured:
Assay type in all cases: functional
Escherichia coli = assay: Minimum inhibitory concentration against Escherichia coli
Bacillus subtilis = assay: Minimum inhibitory concentration against Bacillus subtilis
Klebsiella pneumoniae = assay: Minimum inhibitory concentration against Klebsiella pneumoniae
Pseudomonas aeruginosa = assay: Minimum inhibitory concentration against Pseudomonas aeruginosa
Staphylococcus aureus = assay: Minimum inhibitory concentration against Staphylococcus aureus
[1] = system: Staphylococcus epidermidis; assay: Minimum inhibitory concentration against Staphylococcus epidermidis

SMILES | MIC (Escherichia coli) | MIC (Bacillus subtilis) | MIC (Klebsiella pneumoniae) | MIC (Pseudomonas aeruginosa) | MIC (Staphylococcus aureus) | MIC [1]
CCn1cc(C(=O)O)c(=O)c2cc(F)c(N3CCNCC3)cc21 [NORFLOXACIN] | 0.25 µg/mL (≈ 0.783 µM) | 0.06 µg/mL (≈ 0.188 µM) | 0.25 µg/mL (≈ 0.783 µM) | 2 µg/mL (≈ 6.26 µM) | 1 µg/mL (≈ 3.13 µM) | 0.5 µg/mL (≈ 1.57 µM)
O=C(O)c1cn(C2CC2)c2cc(N3CCN(c4nnc(S(=O)(=O)Cc5ccc([N+](=O)[O-])cc5)s4)CC3)c(F)cc2c1=O | > 64 µg/mL | 1 µg/mL (≈ 1.63 µM) | 64 µg/mL (≈ 104 µM) | > 64 µg/mL | 8 µg/mL (≈ 13 µM) | 2 µg/mL (≈ 3.25 µM)
CCn1cc(C(=O)O)c(=O)c2cc(F)c(N3CCN(c4nnc(SCc5cccc([N+](=O)[O-])c5)s4)CC3)cc21 | 16 µg/mL (≈ 28 µM) | 8 µg/mL (≈ 14 µM) | 16 µg/mL (≈ 28 µM) | > 64 µg/mL | 2 µg/mL (≈ 3.5 µM) | 0.25 µg/mL (≈ 0.438 µM)
CCn1cc(C(=O)O)c(=O)c2cc(F)c(N3CCN(c4nnc(SCc5ccc([N+](=O)[O-])cc5)s4)CC3)cc21 | 32 µg/mL (≈ 56.1 µM) | 2 µg/mL (≈ 3.5 µM) | 64 µg/mL (≈ 112 µM) | > 64 µg/mL | 4 µg/mL (≈ 7.01 µM) | 0.5 µg/mL (≈ 0.876 µM)
O=C(O)c1cn(C2CC2)c2cc(N3CCN(c4nnc(SCc5ccccc5[N+](=O)[O-])s4)CC3)c(F)cc2c1=O | 2 µg/mL (≈ 3.43 µM) | 4 µg/mL (≈ 6.87 µM) | 16 µg/mL (≈ 27.5 µM) | 64 µg/mL (≈ 110 µM) | 2 µg/mL (≈ 3.43 µM) | 0.06 µg/mL (≈ 0.103 µM)
O=C(O)c1cn(C2CC2)c2cc(N3CCN(c4nnc(S(=O)(=O)Cc5ccccc5[N+](=O)[O-])s4)CC3)c(F)cc2c1=O | 1 µg/mL (≈ 1.63 µM) | 1 µg/mL (≈ 1.63 µM) | 4 µg/mL (≈ 6.51 µM) | > 32 µg/mL | 4 µg/mL (≈ 6.51 µM) | 0.03 µg/mL (≈ 0.0488 µM)
O=C(O)c1cn(C2CC2)c2cc(N3CCN(c4nnc(S(=O)(=O)Cc5cccc([N+](=O)[O-])c5)s4)CC3)c(F)cc2c1=O | 8 µg/mL (≈ 13 µM) | 8 µg/mL (≈ 13 µM) | 16 µg/mL (≈ 26 µM) | > 64 µg/mL | 1 µg/mL (≈ 1.63 µM) | 0.05 µg/mL (≈ 0.0813 µM)
CCn1cc(C(=O)O)c(=O)c2cc(F)c(N3CCN(c4nnc(SCc5ccccc5[N+](=O)[O-])s4)CC3)cc21 | 16 µg/mL (≈ 28 µM) | 8 µg/mL (≈ 14 µM) | 32 µg/mL (≈ 56.1 µM) | > 64 µg/mL | 4 µg/mL (≈ 7.01 µM) | 0.5 µg/mL (≈ 0.876 µM)
O=C(O)c1cn(C2CC2)c2cc(N3CCN(c4nnc(SCc5ccccc5)s4)CC3)c(F)cc2c1=O | 16 µg/mL (≈ 29.8 µM) | 4 µg/mL (≈ 7.44 µM) | 32 µg/mL (≈ 59.5 µM) | > 64 µg/mL | 2 µg/mL (≈ 3.72 µM) | 1 µg/mL (≈ 1.86 µM)
CCn1cc(C(=O)O)c(=O)c2cc(F)c(N3CCN(c4nnc(SCc5ccccc5)s4)CC3)cc21 | 16 µg/mL (≈ 30.4 µM) | 8 µg/mL (≈ 15.2 µM) | 16 µg/mL (≈ 30.4 µM) | > 64 µg/mL | 16 µg/mL (≈ 30.4 µM) | 2 µg/mL (≈ 3.8 µM)
O=C(O)c1cn(C2CC2)c2cc(N3CCN(c4nnc(SCc5ccc([N+](=O)[O-])cc5)s4)CC3)c(F)cc2c1=O | 1 µg/mL (≈ 1.72 µM) | 0.5 µg/mL (≈ 0.858 µM) | 2 µg/mL (≈ 3.43 µM) | 32 µg/mL (≈ 54.9 µM) | 0.5 µg/mL (≈ 0.858 µM) | 0.03 µg/mL (≈ 0.0515 µM)
O=C(O)c1cn(C2CC2)c2cc(N3CCN(c4nnc(SCc5cccc([N+](=O)[O-])c5)s4)CC3)c(F)cc2c1=O | 2 µg/mL (≈ 3.43 µM) | 4 µg/mL (≈ 6.87 µM) | 2 µg/mL (≈ 3.43 µM) | 64 µg/mL (≈ 110 µM) | 0.5 µg/mL (≈ 0.858 µM) | 0.06 µg/mL (≈ 0.103 µM)
CCn1cc(C(=O)O)c(=O)c2cc(F)c(N3CCN(c4nnc(S(=O)(=O)Cc5cccc([N+](=O)[O-])c5)s4)CC3)cc21 | > 64 µg/mL | 64 µg/mL (≈ 106 µM) | > 64 µg/mL | > 64 µg/mL | > 64 µg/mL | 64 µg/mL (≈ 106 µM)
CCn1cc(C(=O)O)c(=O)c2cc(F)c(N3CCN(c4nnc(S(=O)(=O)Cc5ccccc5)s4)CC3)cc21 | > 64 µg/mL | 8 µg/mL (≈ 14.3 µM) | > 64 µg/mL | > 64 µg/mL | 64 µg/mL (≈ 115 µM) | 16 µg/mL (≈ 28.7 µM)
O=C(O)c1cn(C2CC2)c2cc(N3CCN(c4nnc(S(=O)(=O)Cc5ccccc5)s4)CC3)c(F)cc2c1=O | > 64 µg/mL | 4 µg/mL (≈ 7.02 µM) | > 64 µg/mL | > 64 µg/mL | 16 µg/mL (≈ 28.1 µM) | 4 µg/mL (≈ 7.02 µM)
CCn1cc(C(=O)O)c(=O)c2cc(F)c(N3CCN(c4nnc(S(=O)(=O)Cc5ccc([N+](=O)[O-])cc5)s4)CC3)cc21 | > 64 µg/mL | 32 µg/mL (≈ 53.1 µM) | > 64 µg/mL | > 64 µg/mL | 64 µg/mL (≈ 106 µM) | 8 µg/mL (≈ 13.3 µM)
O=C(O)c1cn(C2CC2)c2cc(N3CCNCC3)c(F)cc2c1=O [CIPROFLOXACIN] | – | 0.015 µg/mL (≈ 0.0453 µM) | 0.06 µg/mL (≈ 0.181 µM) | – | 0.5 µg/mL (≈ 1.51 µM) | 0.25 µg/mL (≈ 0.754 µM)
CCn1cc(C(=O)O)c(=O)c2cc(F)c(N3CCN(c4nnc(S(=O)(=O)Cc5ccccc5[N+](=O)[O-])s4)CC3)cc21 | 32 µg/mL (≈ 53.1 µM) | 16 µg/mL (≈ 26.6 µM) | 64 µg/mL (≈ 106 µM) | > 64 µg/mL | > 64 µg/mL | > 64 µg/mL
